Measurements as given in ChEMBL document CHEMBL3044741, “Synthesis of novel biologically active methylene derivatives of sydnones” (Med Chem Res, 2013).
Converted amounts (≈) assume the structure as drawn.

Assays:
Type in all cases: functional
Escherichia coli [1] = assay: Antibacterial activity against Escherichia coli MTCC 443 at 250 ug/ml after 24 hrs by Kirby-Bauer method; conditions: MTCC 443, 24 h, read-out: IZ
HOP-62 = assay: Cytotoxicity against human HOP62 assessed as cell growth at high concentration
A549 = assay: Cytotoxicity against human A549 assessed as cell growth at high concentration
MCF7 = assay: Cytotoxicity against human MCF7 assessed as cell growth at high concentration
Staphylococcus aureus [2] = assay: Antibacterial activity against Staphylococcus aureus MTCC 96 at 250 ug/ml after 24 hrs by Kirby-Bauer method; conditions: MTCC 96, 24 h, read-out: IZ
KM12 = assay: Cytotoxicity against human KM12 assessed as cell growth at high concentration
Aspergillus niger [3] = assay: Antifungal activity against Aspergillus niger MTCC 282
CCRF-CEM = assay: Cytotoxicity against human CCRF-CEM assessed as cell growth at high concentration
BT-549 = assay: Cytotoxicity against human BT549 assessed as cell growth at high concentration
NCI-H322M = assay: Cytotoxicity against human NCI-H322M assessed as cell growth at high concentration
SNB-75 = assay: Cytotoxicity against human SNB75 assessed as cell growth at high concentration
COLO 205 = assay: Cytotoxicity against human COLO205 assessed as cell growth at high concentration
Malme-3M = assay: Cytotoxicity against human MALME-3M assessed as cell growth at high concentration
NCI-H460 = assay: Cytotoxicity against human NCI-H460 assessed as cell growth at high concentration
Staphylococcus aureus [4] = assay: Antibacterial activity against Staphylococcus aureus MTCC 96 after 24 hrs by broth dilution method; conditions: MTCC 96, 24 h
MDA-MB-468 = assay: Cytotoxicity against human MDA-MB-468 assessed as cell growth at high concentration
Aspergillus clavatus [5] = assay: Antifungal activity against Aspergillus clavatus MTCC 1323 at 250 ug/ml after 74 hrs by Kirby-Bauer method; conditions: MTCC 1323, 74 h, read-out: IZ
SNB-19 = assay: Cytotoxicity against human SNB19 assessed as cell growth at high concentration
OVCAR-8 = assay: Cytotoxicity against human OVCAR8 assessed as cell growth at high concentration
HCT-15 = assay: Cytotoxicity against human HCT15 assessed as cell growth at high concentration
TK-10 = assay: Cytotoxicity against human TK10 assessed as cell growth at high concentration
Hs-578T = assay: Cytotoxicity against human Hs 578T assessed as cell growth at high concentration
SF-268 = assay: Cytotoxicity against human SF268 assessed as cell growth at high concentration
SK-MEL-28 = assay: Cytotoxicity against human SK-MEL-28 assessed as cell growth at high concentration
PC-3 = assay: Cytotoxicity against human PC3 assessed as cell growth at high concentration
SW-620 = assay: Cytotoxicity against human SW620 assessed as cell growth at high concentration
MDA-MB-435 = assay: Cytotoxicity against human MDA-MB-435 assessed as cell growth at high concentration
Candida albicans [6] = assay: Antifungal activity against Candida albicans MTCC 227
RXF 393 = assay: Cytotoxicity against human RXF393 assessed as cell growth at high concentration
[7] = Cytotoxicity against human NCI-ADR-RES assessed as cell growth at high concentration
Streptococcus pyogenes [8] = assay: Antibacterial activity against Streptococcus pyogenes MTCC 442 at 250 ug/ml after 24 hrs by Kirby-Bauer method; conditions: MTCC 442, 24 h, read-out: IZ
EKVX = assay: Cytotoxicity against human EKVX assessed as cell growth at high concentration
MDA-MB-231 = assay: Cytotoxicity against human MDA-MB-231 assessed as cell growth at high concentration
A498 = assay: Cytotoxicity against human A498 assessed as cell growth at high concentration
SK-OV-3 = assay: Cytotoxicity against human SKOV3 assessed as cell growth at high concentration
OVCAR-4 = assay: Cytotoxicity against human OVCAR4 assessed as cell growth at high concentration
LOX IMVI = assay: Cytotoxicity against human LOXIMVI assessed as cell growth at high concentration
786-0 = assay: Cytotoxicity against human 786-0 assessed as cell growth at high concentration
UACC-257 = assay: Cytotoxicity against human UACC257 assessed as cell growth at high concentration
HCT-116 = assay: Cytotoxicity against human HCT116 assessed as cell growth at high concentration
M14 = assay: Cytotoxicity against human M14 assessed as cell growth at high concentration
HCC 2998 = assay: Cytotoxicity against human HCC2998 assessed as cell growth at high concentration
Candida albicans [9] = assay: Antifungal activity against Candida albicans MTCC 227 at 250 ug/ml after 74 hrs by Kirby-Bauer method; conditions: MTCC 227, 74 h, read-out: IZ
SR = assay: Cytotoxicity against human SR assessed as cell growth at high concentration
UO-31 = assay: Cytotoxicity against human UO31 assessed as cell growth at high concentration
MOLT-4 = assay: Cytotoxicity against human MOLT4 assessed as cell growth at high concentration
SF-539 = assay: Cytotoxicity against human SF539 assessed as cell growth at high concentration
HL-60(TB) = assay: Cytotoxicity against human HL-60(TB) assessed as cell growth at high concentration
Escherichia coli [10] = assay: Antibacterial activity against Escherichia coli MTCC 443 after 24 hrs by broth dilution method; conditions: MTCC 443, 24 h
Pseudomonas aeruginosa [11] = assay: Antibacterial activity against Pseudomonas aeruginosa MTCC 424 after 24 hrs by broth dilution method; conditions: MTCC 424, 24 h
T47D = assay: Cytotoxicity against human T47D assessed as cell growth at high concentration
OVCAR-3 = assay: Cytotoxicity against human OVCAR3 assessed as cell growth at high concentration
U-251 = assay: Cytotoxicity against human U251 assessed as cell growth at high concentration
K562 = assay: Cytotoxicity against human K562 assessed as cell growth at high concentration
HT-29 = assay: Cytotoxicity against human HT-29 assessed as cell growth at high concentration
SF-295 = assay: Cytotoxicity against human SF295 assessed as cell growth at high concentration
Streptococcus pyogenes [12] = assay: Antibacterial activity against Streptococcus pyogenes MTCC 442 after 24 hrs by broth dilution method; conditions: MTCC 442, 24 h
SK-MEL-5 = assay: Cytotoxicity against human SK-MEL-5 assessed as cell growth at high concentration
SK-MEL-2 = assay: Cytotoxicity against human SK-MEL-2 assessed as cell growth at high concentration
RPMI-8226 = assay: Cytotoxicity against human RPMI8226 assessed as cell growth at high concentration
NCI-H23 = assay: Cytotoxicity against human NCI-H23 assessed as cell growth at high concentration
IGROV-1 = assay: Cytotoxicity against human IGROV1 assessed as cell growth at high concentration
UACC-62 = assay: Cytotoxicity against human UACC62 assessed as cell growth at high concentration
NCI-H226 = assay: Cytotoxicity against human NCI-H226 assessed as cell growth at high concentration
SN12C = assay: Cytotoxicity against human SN12C assessed as cell growth at high concentration
NCI-H522 = assay: Cytotoxicity against human NCI-H522 assessed as cell growth at high concentration
CAKI-1 = assay: Cytotoxicity against human Caki1 assessed as cell growth at high concentration
DU-145 = assay: Cytotoxicity against human DU145 assessed as cell growth at high concentration
Aspergillus niger [13] = assay: Antifungal activity against Aspergillus niger MTCC 282 at 250 ug/ml after 74 hrs by Kirby-Bauer method; conditions: MTCC 282, 74 h, read-out: IZ
Aspergillus clavatus [14] = assay: Antifungal activity against Aspergillus clavatus MTCC 1323
Pseudomonas aeruginosa [15] = assay: Antibacterial activity against Pseudomonas aeruginosa MTCC 424 at 250 ug/ml after 24 hrs by Kirby-Bauer method; conditions: MTCC 424, 24 h, read-out: IZ

## [O-]c1on[n+](-c2ccc(Cc3ccc(-[n+]4noc([O-])c4CN4CCOCC4)cc3)cc2)c1CN1CCOCC1
Escherichia coli [1]
  zone of inhibition at 250 µg/mL: 18 mm
HOP-62
  Activity: 77%
A549
  Activity: 69.06%
MCF7
  Activity: 45.59%
Staphylococcus aureus [2]
  zone of inhibition at 250 µg/mL: 21 mm
KM12
  Activity: 54.32%
Aspergillus niger [3]
  MIC: 250 µg/mL (≈ 468 µM)
CCRF-CEM
  Activity: 63.93%
BT-549
  Activity: 60.72%
NCI-H322M
  Activity: 82.54%
SNB-75
  Activity: 72.63%
COLO 205
  Activity: 99.94%
Malme-3M
  Activity: 65.64%
NCI-H460
  Activity: 82.89%
Staphylococcus aureus [4]
  MIC: 100 µg/mL (≈ 187 µM)
MDA-MB-468
  Activity: 11.42%
Aspergillus clavatus [5]
  zone of inhibition at 250 µg/mL: 24 mm
SNB-19
  Activity: 86.48%
OVCAR-8
  Activity: 80.93%
HCT-15
  Activity: 78.57%
TK-10
  Activity: 74.48%
Hs-578T
  Activity: 64.02%
SF-268
  Activity: 78.33%
SK-MEL-28
  Activity: 74.89%
PC-3
  Activity: 56.45%
SW-620
  Activity: 67.72%
MDA-MB-435
  Activity: 4.71%
Candida albicans [6]
  MIC: 500 µg/mL (≈ 935 µM)
RXF 393
  Activity: 72.21%
[7]
  Activity: 63.42%
Streptococcus pyogenes [8]
  zone of inhibition at 250 µg/mL: 19 mm
EKVX
  Activity: 69.86%
MDA-MB-231
  Activity: 60.45%
A498
  Activity: 53.74%
SK-OV-3
  Activity: 87.98%
OVCAR-4
  Activity: 53.91%
LOX IMVI
  Activity: 65.03%
786-0
  Activity: 73.96%
UACC-257
  Activity: 75.14%
HCT-116
  Activity: 63.75%
M14
  Activity: 69.54%
HCC 2998
  Activity: 80.48%
Candida albicans [9]
  zone of inhibition at 250 µg/mL: 23 mm
SR
  Activity: 23.05%
UO-31
  Activity: 44.31%
MOLT-4
  Activity: 68.41%
SF-539
  Activity: 77.5%
HL-60(TB)
  Activity: 86.39%
Escherichia coli [10]
  MIC: 250 µg/mL (≈ 468 µM)
Pseudomonas aeruginosa [11]
  MIC: 125 µg/mL (≈ 234 µM)
T47D
  Activity: 56.09%
OVCAR-3
  Activity: 89.12%
U-251
  Activity: 62.81%
K562
  Activity: 26.39%
HT-29
  Activity: 89.7%
SF-295
  Activity: 44.14%
Streptococcus pyogenes [12]
  MIC: 250 µg/mL (≈ 468 µM)
SK-MEL-5
  Activity: 53.16%
SK-MEL-2
  Activity: 78.61%
RPMI-8226
  Activity: 60.49%
NCI-H23
  Activity: 62.15%
IGROV-1
  Activity: 62.3%
UACC-62
  Activity: 53.38%
NCI-H226
  Activity: 85.46%
SN12C
  Activity: 80.32%
NCI-H522
  Activity: 36.96%
CAKI-1
  Activity: 49.27%
DU-145
  Activity: 100.94%
Aspergillus niger [13]
  zone of inhibition at 250 µg/mL: 23 mm
Aspergillus clavatus [14]
  MIC: 500 µg/mL (≈ 935 µM)
Pseudomonas aeruginosa [15]
  zone of inhibition at 250 µg/mL: 21 mm
